US8304419B2, “Chemical compounds” (priority 2007, dated 2012)
Structures can show the parent of a compound that is named as a salt.

System: HIV wild type (WTRVA)
Assay: HeLa cell assay, wild type virus (WTRVA)
Assay type: cell-based, HIV-1
Set-up: scale not given here
Details: Human immunodeficiency virus 1, HeLa, HeLa-CD4-LTR-β-gal cells, wild type virus; read-out: WTRVA activity level

SMILES	IC50 [nM]
COc1ccc(C(=O)NCc2ccc(Cl)c(Oc3cc(Cl)cc(C#N)c3)c2)c(C)c1 [Example 2, N-({4-chloro-3-[(3-chloro-5-cyanophenyl)oxy]phenyl}methyl)-2-methyl-4-(methyloxy)benzamide]	> 1000
COc1ccc2c(C(=O)NCc3ccc(Cl)c(Oc4cc(Cl)cc(C#N)c4)c3)c[nH]c2c1 [Example 3, N-({4-chloro-3-[(3-chloro-5-cyanophenyl)oxy]phenyl}methyl)-6-(methyloxy)-1H-indole-3-carboxamide]	> 1000
N#Cc1cc(Cl)cc(Oc2cc(CNC(=O)c3ccc(S(N)(=O)=O)cc3Cl)ccc2Cl)c1 [Example 4, 4-(aminosulfonyl)-2-chloro-N-({4-chloro-3-[(3-chloro-5-cyanophenyl)oxy]phenyl}methyl)benzamide trifluoroacetate]	10 to 1000
N#Cc1cc(Cl)cc(Oc2cc(CNC(=O)c3ccc(Cl)c(S(N)(=O)=O)c3)ccc2Cl)c1 [Example 5, 3-(aminosulfonyl)-4-chloro-N-({4-chloro-3-[(3-chloro-5-cyanophenyl)oxy]phenyl}methyl)benzamide trifluoroacetate]	10 to 1000
COc1ccc(C(=O)NCc2ccc(Cl)c(Oc3cc(Cl)cc(C#N)c3)c2)c(OC)c1 [Example 6, N-({4-chloro-3-[(3-chloro-5-cyanophenyl)oxy]phenyl}methyl)-2,4-bis(methyloxy)benzamide]	10 to 1000
COc1ccc2cc(C(=O)NCc3ccc(Cl)c(Oc4cc(Cl)cc(C#N)c4)c3)[nH]c2c1 [Example 7, N-({4-chloro-3-[(3-chloro-5-cyanophenyl)oxy]phenyl}methyl)-6-(methyloxy)-1H-indole-2-carboxamide]	10 to 1000
CS(=O)(=O)c1ccc(C(=O)NCc2ccc(Cl)c(Oc3cc(Cl)cc(C#N)c3)c2)c(Cl)c1 [Example 8, 2-chloro-N-({4-chloro-3-[(3-chloro-5-cyanophenyl)oxy]phenyl}methyl)-4-(methylsulfonyl)benzamide]	10 to 1000
N#Cc1cc(Cl)cc(Oc2cc(CNC(=O)c3cc4cc([N+](=O)[O-])ccc4[nH]3)ccc2Cl)c1 [Example 9, N-({4-chloro-3-[(3-chloro-5-cyanophenyl)oxy]phenyl}methyl)-5-nitro-1H-indole-2-carboxamide]	> 1000
COc1ccc2[nH]c(C(=O)NCc3ccc(Cl)c(Oc4cc(Cl)cc(C#N)c4)c3)cc2c1 [Example 10, N-({4-chloro-3-[(3-chloro-5-cyanophenyl)oxy]phenyl}methyl)-5-(methyloxy)-1H-indole-2-carboxamide]	10 to 1000
COC(=O)c1ccc(C(=O)NCc2ccc(Cl)c(Oc3cc(Cl)cc(C#N)c3)c2)cc1 [Example 11, Methyl 4-{[({4-chloro-3-[(3-chloro-5-cyanophenyl)oxy]phenyl}methyl)amino]carbonyl}benzoate]	> 1000
N#Cc1cc(Cl)cc(Oc2c(Cl)ccc(CNC(=O)c3ccc(S(N)(=O)=O)cc3Cl)c2F)c1 [Example 14, 4-(aminosulfonyl)-2-chloro-N-({4-chloro-3-[(3-chloro-5-cyanophenyl)oxy]-2-fluorophenyl}methyl)benzamide]	10 to 1000
COC(=O)c1ccc(C(=O)NCc2ccc(Cl)c(Oc3cc(Cl)cc(C#N)c3)c2F)cc1 [Example 15, Methyl 4-{[({4-chloro-3-[(3-chloro-5-cyanophenyl)oxy]-2-fluorophenyl}methyl)amino]carbonyl}benzoate]	10 to 1000
CS(=O)(=O)c1ccc(C(=O)NCc2ccc(Cl)c(Oc3cc(Cl)cc(C#N)c3)c2F)c(Cl)c1 [Example 16, 2-chloro-N-({4-chloro-3-[(3-chloro-5-cyanophenyl)oxy]-2-fluorophenyl}methyl)-4-(methylsulfonyl)benzamide]	10 to 1000
COc1ccc(C(=O)NCc2ccc(Cl)c(Oc3cc(Cl)cc(C#N)c3)c2F)c(C)c1 [Example 17, N-({4-chloro-3-[(3-chloro-5-cyanophenyl)oxy]-2-fluorophenyl}methyl)-2-methyl-4-(methyloxy)benzamide]	10 to 1000
COc1ccc2c(C(=O)NCc3ccc(Cl)c(Oc4cc(Cl)cc(C#N)c4)c3F)c[nH]c2c1 [Example 18, N-({4-chloro-3-[(3-chloro-5-cyanophenyl)oxy]-2-fluorophenyl}methyl)-6-(methyloxy)-1H-indole-3-carboxamide]	10 to 1000
N#Cc1cc(Cl)cc(Oc2c(Cl)ccc(CNC(=O)c3cc4cc([N+](=O)[O-])ccc4[nH]3)c2F)c1 [Example 19, N-({4-chloro-3-[(3-chloro-5-cyanophenyl)oxy]-2-fluorophenyl}methyl)-5-nitro-1H-indole-2-carboxamide]	< 10
COc1ccc2[nH]c(C(=O)NCc3ccc(Cl)c(Oc4cc(Cl)cc(C#N)c4)c3F)cc2c1 [Example 20, N-({4-chloro-3-[(3-chloro-5-cyanophenyl)oxy]-2-fluorophenyl}methyl)-5-(methyloxy)-1H-indole-2-carboxamide]	10 to 1000

SMILES	IC50 [nM]
COc1ccc2cc(C(=O)NCc3ccc(Cl)c(Oc4cc(Cl)cc(C#N)c4)c3F)[nH]c2c1 [Example 21, N-({4-chloro-3-[(3-chloro-5-cyanophenyl)oxy]-2-fluorophenyl}methyl)-6-(methyloxy)-1H-indole-2-carboxamide]	10 to 1000
N#Cc1cc(Cl)cc(Oc2c(Cl)ccc(CNC(=O)c3cc4cc(OCC(CO)CO)ccc4[nH]3)c2F)c1 [Example 22, N-({4-chloro-3-[(3-chloro-5-cyanophenyl)oxy]-2-fluorophenyl}methyl)-5-{[3-hydroxy-2-(hydroxymethyl)propyl]oxy}-1H-indole-2-carboxamide]	< 10
CC(C)(C)OC(=O)N1CCO[C@@H](COc2ccc3[nH]c(C(=O)NCc4ccc(Cl)c(Oc5cc(Cl)cc(C#N)c5)c4F)cc3c2)C1 [Example 23, 1,1-dimethylethyl (2R)-2-{[(2-{[({4-chloro-3-[(3-chloro-5-cyanophenyl)oxy]-2-fluorophenyl}methyl)amino]carbonyl}-1H-indol-5-yl)oxy]methyl}-4-morpholinecarboxylate]	10 to 1000
N#Cc1cc(Cl)cc(Oc2c(Cl)ccc(CNC(=O)c3cc4cc(OC[C@H]5CNCCO5)ccc4[nH]3)c2F)c1 [Example 24, N-({4-Chloro-3-[(3-chloro-5-cyanophenyl)oxy]-2-fluorophenyl}methyl)-5-{[(2R)-2-morpholinylmethyl]oxy}-indole-2-carboxamide]	< 10
N#Cc1cc(Cl)cc(Oc2c(Cl)ccc(CNC(=O)c3cc4cc(O)ccc4[nH]3)c2F)c1 [Example 26, N-({4-chloro-3-[(3-chloro-5-cyanophenyl)oxy]-2-fluorophenyl}methyl)-5-hydroxy-1H-indole-2-carboxamide]	< 10
N#Cc1cc(Cl)cc(Oc2c(Cl)ccc(CNC(=O)c3cc4cc(OC(F)(F)F)ccc4[nH]3)c2F)c1 [Example 27, N-({4-chloro-3-[(3-chloro-5-cyanophenyl)oxy]-2-fluorophenyl}methyl)-5-[(trifluoromethyl)oxy]-1H-indole-2-carboxamide]	10 to 1000
N#Cc1cc(Cl)cc(Oc2c(Cl)ccc(CNC(=O)c3cc4ccccc4[nH]3)c2F)c1 [Example 28, N-({4-chloro-3-[(3-chloro-5-cyanophenyl)oxy]-2-fluorophenyl}methyl)-1H-indole-2-carboxamide]	< 10
N#Cc1cc(Cl)cc(Oc2c(Cl)ccc(CNC(=O)c3cc4cc(Br)ccc4[nH]3)c2F)c1 [Example 29, 5-bromo-N-({4-chloro-3-[(3-chloro-5-cyanophenyl)oxy]-2-fluorophenyl}methyl)-1H-indole-2-carboxamide]	10 to 1000
Cc1cc(Br)cc2cc(C(=O)NCc3ccc(Cl)c(Oc4cc(Cl)cc(C#N)c4)c3F)[nH]c12 [Example 30, 5-bromo-N-({4-chloro-3-[(3-chloro-5-cyanophenyl)oxy]-2-fluorophenyl}methyl)-7-methyl-1H-indole-2-carboxamide]	10 to 1000
N#Cc1cc(Cl)cc(Oc2c(Cl)ccc(CNC(=O)c3cc4ccc([N+](=O)[O-])cc4[nH]3)c2F)c1 [Example 31, N-({4-chloro-3-[(3-chloro-5-cyanophenyl)oxy]-2-fluorophenyl}methyl)-6-nitro-1H-indole-2-carboxamide]	10 to 1000
N#Cc1cc(Cl)cc(Oc2c(Cl)ccc(CNC(=O)c3cc4cccc(O)c4[nH]3)c2F)c1 [Example 32, N-({4-chloro-3-[(3-chloro-5-cyanophenyl)oxy]-2-fluorophenyl}methyl)-7-hydroxy-1H-indole-2-carboxamide]	10 to 1000
CS(=O)(=O)c1cc(F)cc2cc(C(=O)NCc3ccc(Cl)c(Oc4cc(Cl)cc(C#N)c4)c3F)[nH]c12 [Example 33, N-({4-chloro-3-[(3-chloro-5-cyanophenyl)oxy]-2-fluorophenyl}methyl)-5-fluoro-7-(methylsulfonyl)-1H-indole-2-carboxamide]	10 to 1000
COc1cccc2[nH]c(C(=O)NCc3ccc(Cl)c(Oc4cc(Cl)cc(C#N)c4)c3F)cc12 [Example 34, N-({4-chloro-3-[(3-chloro-5-cyanophenyl)oxy]-2-fluorophenyl}methyl)-4-(methyloxy)-1H-indole-2-carboxamide]	< 10
N#Cc1cc(Cl)cc(Oc2c(Cl)ccc(CNC(=O)c3nc4ccccc4[nH]3)c2F)c1 [Example 35, N-({4-chloro-3-[(3-chloro-5-cyanophenyl)oxy]-2-fluorophenyl}methyl)-1H-benzimidazole-2-carboxamide]	< 10
N#Cc1cc(Cl)cc(Oc2c(Cl)ccc(CNC(=O)c3cc4ccc(O)cc4[nH]3)c2F)c1 [Example 36, N-({4-chloro-3-[(3-chloro-5-cyanophenyl)oxy]-2-fluorophenyl}methyl)-6-hydroxy-1H-indole-2-carboxamide]	< 10
N#Cc1cc(Cl)cc(Oc2c(Cl)ccc(CNC(=O)c3cc4cccc([N+](=O)[O-])c4[nH]3)c2F)c1 [Example 37, N-({4-chloro-3-[(3-chloro-5-cyanophenyl)oxy]-2-fluorophenyl}methyl)-7-nitro-1H-indole-2-carboxamide]	10 to 1000
COc1ccc2[nH]c3c(c2c1)CCN(Cc1ccc(Cl)c(Oc2cc(Cl)cc(C#N)c2)c1F)C3=O [Example 38, 3-chloro-5-[(6-chloro-2-fluoro-3-{[6-(methyloxy)-1-oxo-1,3,4,9-tetrahydro-2H-β-carbolin-2-yl]methyl}phenyl)oxy]benzonitrile]	10 to 1000
